Test results as given in the supplement of paper PMC11208160.

Columns and labels:
[1] = recombinant barcode read abundance after kanamycin selection (control-corrected) (log10(CPM+1)); higher = more efficient recombination; sequences stand for … in AGTGCAGAGAAAATCGGCCAGTTTTCTCTGCCTGCAGTCCGCATGCCGT…ATTTATGCAGCGGACTGCCTTTCTCCCAAAGTGATAAACCGGACAGTATCATGGACCGGTTTTCCCGGTAATCCGTATTTGCAAGGTTGGTTTCACT; site = the 11-nt target
Experimental: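 Same pooled E. coli target screen (IS621 bridge recombinase, kanamycin selection, control-corrected CPM, mean of 2 biological replicates). Here the two core-binding nucleotides of the LTG and RTG of the bridge RNA target-binding loop are mutated. Target and donor CT cores are held constant, and the other 9 guide positions match the target. The target is read from the library oligo sequence. Molecule = full bridge RNA written as DNA: nt 1-80 from the library oligo, rest WT scaffold.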

[2] = recombinant barcode read abundance after kanamycin selection (control-corrected) (log10(CPM+1)); higher = more efficient recombination; sequences stand for … in AGTGCAGAGAAAATCGGCCAGTTTTCTCTGCCTGCAGTCCGCATGCCGT…AGATTTATGCAGCGGACTGCCTTTCTCCCAAAGTGATAAACCGGACAGTATCATGGACCGGTTTTCCCGGTAATCCGTATTTGCAAGGTTGGTTTCACT; site = the 11-nt target
Method in brief: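 A vector carrying a T7-inducible recombinase and the last 73 bp of the bridge RNA received, by Gibson cloning, oligos encoding a promoter, target, barcode and the first 104 bridge RNA bases under J23119. The pooled constructs entered E. coli together with a donor plasmid by electroporation. Selection used chloramphenicol/ampicillin/kanamycin with 0.1 mM IPTG, with chloramphenicol/ampicillin LB agar as the control, each in two replicates. Recombination efficiency is the averaged, control-corrected counts-per-million of barcodes at recombinant junctions, reported as log10(CPM+1).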

Sequence	recombinant barcode read abundance (log10) [1]	recombinant barcode read abundance (log10) [2]
AAACACAACTGGGTTCTAACCTGTTGCCTAG [AAACACACTAG_LTGcore_AC_RTGcore_CT] (site AAACACACTAG) (LTG core: AC, RTG core: CT)	0.0236	
AAACACAAGTGGGTTCTAACCTGTTGCCTCT [AAACACACTAG_LTGcore_AG_RTGcore_AG] (site AAACACACTAG) (LTG core: AG, RTG core: AG)	0.196	
AAACACACATGGGTTCTAACCTGTTGCCTTG [AAACACACTAG_LTGcore_CA_RTGcore_CA] (site AAACACACTAG) (LTG core: CA, RTG core: CA)	0.341	
AAACACACTTGGGTTCTAACCTGTTGCCTAC [AAACACACTAG_LTGcore_CT_RTGcore_GT] (site AAACACACTAG) (LTG core: CT, RTG core: GT)	0.217	
AAACACACTTGGGTTCTAACCTGTTGCCTAG [AAACACACTAG_LTGcore_CT_RTGcore_CT] (site AAACACACTAG) (LTG core: CT, RTG core: CT)	2	
AAACACACTTGGGTTCTAACCTGTTGCCTCA [AAACACACTAG_LTGcore_CT_RTGcore_TG] (site AAACACACTAG) (LTG core: CT, RTG core: TG)	0.985	
AAACACACTTGGGTTCTAACCTGTTGCCTTA [AAACACACTAG_LTGcore_CT_RTGcore_TA] (site AAACACACTAG) (LTG core: CT, RTG core: TA)	0.852	
AAACACATCTGGGTTCTAACCTGTTGCCTGA [AAACACACTAG_LTGcore_TC_RTGcore_TC] (site AAACACACTAG) (LTG core: TC, RTG core: TC)	0.505	
AAACAGTAATGGGTTCTAACCTGTTGCCTAG [AAACAGTCTAG_LTGcore_AA_RTGcore_CT] (site AAACAGTCTAG) (LTG core: AA, RTG core: CT)	0.01	
AAACAGTACTGGGTTCTAACCTGTTGCCTAG [AAACAGTCTAG_LTGcore_AC_RTGcore_CT] (site AAACAGTCTAG) (LTG core: AC, RTG core: CT)	0.0247	
AAACAGTCATGGGTTCTAACCTGTTGCCTAG [AAACAGTCTAG_LTGcore_CA_RTGcore_CT] (site AAACAGTCTAG) (LTG core: CA, RTG core: CT)	1.38	
AAACAGTCATGGGTTCTAACCTGTTGCCTTG [AAACAGTCTAG_LTGcore_CA_RTGcore_CA] (site AAACAGTCTAG) (LTG core: CA, RTG core: CA)	0.25	
AAACAGTCGTGGGTTCTAACCTGTTGCCTCG [AAACAGTCTAG_LTGcore_CG_RTGcore_CG] (site AAACAGTCTAG) (LTG core: CG, RTG core: CG)	0.227	
TTCTGTCCTTGGGTTCTAACCTGTTGCCT (site TTCTCTCCTAG)		0.0821
TTCTGTCCTTGGGTTCTAACCTGTTGCCT (site TTCTGTCCTAG)		0.799
TTCTGTCCTTGGGTTCTAACCTGTTGCCT (site TTCTTTCCTAG)		0.0428
TTCTGTTCTTGGGTTCTAACCTGTTGCCT (site TTCTCTTCTAG)		0.0281
TTCTGTTCTTGGGTTCTAACCTGTTGCCT (site TTCTGTTCTAG)		0.196
TTCTTAACTTGGGTTCTAACCTGTTGCGG (site ACTGATCCTAT)		0.0323
TTCTTAACTTGGGTTCTAACCTGTTGCGG (site TTCTTAACTCC)		0.532
TTGAACCCTTGGGTTCTAACCTGTTGCGT (site ATGAACCCTAC)		0.303
TTGAACCCTTGGGTTCTAACCTGTTGCGT (site TTGAACCCTAC)		1.63
TTGAAGCCTTGGGTTCTAACCTGTTGCCT (site ATGAAGCCTAG)		0.41

Sequence	recombinant barcode read abundance (log10) [1]	recombinant barcode read abundance (log10) [2]
TTGAAGCCTTGGGTTCTAACCTGTTGCCT (site CTGAAGCCTAG)		0.0479
TTGAAGCCTTGGGTTCTAACCTGTTGCCT (site GTGAAGCCTAG)		0.0341
TTGAAGCCTTGGGTTCTAACCTGTTGCCT (site TTGAAGCCTAG)		1.38
TTGAATTCTTGGGTTCTAACCTGTTGCTT (site TTGAATTCTAA)		0.0275
TTGAATTCTTGGGTTCTAACCTGTTGCTT (site TTGTATTCTAG)		0.234
TTGACACCTTGGGTTCTAACCTGTTGCCT (site GGAGTCACTCC)		0.0713
TTGACACCTTGGGTTCTAACCTGTTGCCT (site TTGACACCTAG)		1.1
TTGACTGCTTGGGTTCTAACCTGTTGCCT (site TTGAATGCTAG)		0.0744
TTGACTGCTTGGGTTCTAACCTGTTGCCT (site TTGACTGCTAG)		0.812
TTGACTGCTTGGGTTCTAACCTGTTGCCT (site TTGAGTGCTAG)		0.0596
TTGACTGCTTGGGTTCTAACCTGTTGCCT (site TTGATTGCTAG)		0.0272
TTGATATCTTGGGTTCTAACCTGTTGCCT (site TTGAAATCTAG)		0.0834
TTGATATCTTGGGTTCTAACCTGTTGCCT (site TTGACATCTAG)		0.264
TTGATATCTTGGGTTCTAACCTGTTGCCT (site TTGAGATCTAG)		0.0244
TTGATATCTTGGGTTCTAACCTGTTGCCT (site TTGATATCTAG)		0.149
TTGATGACTTGGGTTCTAACCTGTTGCCT (site TTGATGACTAG)		1.25
TTGATGACTTGGGTTCTAACCTGTTGCCT (site TTGTAGACTAG)		0.103
TTGCATTCTTGGGTTCTAACCTGTTGCTG (site AAAGGGGCTAG)		0.147
TTGCATTCTTGGGTTCTAACCTGTTGCTG (site TTGCATTCTCA)		0.962
TTGCGGCCTTGGGTTCTAACCTGTTGCAG (site CAAACTACTTG)		0.0363
TTGCGGCCTTGGGTTCTAACCTGTTGCAG (site TTGCGGCCTCT)		1.78
TTGGACACTTGGGTTCTAACCTGTTGCCT (site TTGGACACTAG)		2.33
TTGGACACTTGGGTTCTAACCTGTTGCCT (site TTGGCCACTAG)		0.0571

Sequence	recombinant barcode read abundance (log10) [1]	recombinant barcode read abundance (log10) [2]
TTGGACACTTGGGTTCTAACCTGTTGCCT (site TTGGGCACTAG)		0.327
TTGGACACTTGGGTTCTAACCTGTTGCCT (site TTGGTCACTAG)		0.227
TTGGACGCTTGGGTTCTAACCTGTTGCCT (site TTGGACGCTAG)		2.37
TTGGACGCTTGGGTTCTAACCTGTTGCCT (site TTGGCCGCTAG)		0.335
TTGGACGCTTGGGTTCTAACCTGTTGCCT (site TTGGGCGCTAG)		0.838
TTGGACGCTTGGGTTCTAACCTGTTGCCT (site TTGGTCGCTAG)		0.133
TTGGGTGCTTGGGTTCTAACCTGTTGCCG (site TTGGGTGCTCG)		1.81
TTGGGTGCTTGGGTTCTAACCTGTTGCCG (site TTGGGTTCTAG)		0.0649
TTGGTTCCTTGGGTTCTAACCTGTTGCCT (site TTGGTACCTAG)		0.155
TTGGTTCCTTGGGTTCTAACCTGTTGCCT (site TTGGTCCCTAG)		0.0439
TTGGTTCCTTGGGTTCTAACCTGTTGCCT (site TTGGTGCCTAG)		0.43
TTGGTTCCTTGGGTTCTAACCTGTTGCCT (site TTGGTTCCTAG)		2.07
TTGTAAGCTTGGGTTCTAACCTGTTGCCG (site TTGTAAGCTCG)		0.653
TTGTAAGCTTGGGTTCTAACCTGTTGCCG (site TTGTGAGCTCC)		0.441
TTGTACACTTGGGTTCTAACCTGTTGCCC (site CACATGCCTCA)		0.452
TTGTACACTTGGGTTCTAACCTGTTGCCC (site TTGTACACTGG)		0.996
TTGTCTCCTTGGGTTCTAACCTGTTGCCT (site ATGTCTCCTAG)		0.0689
TTGTCTCCTTGGGTTCTAACCTGTTGCCT (site CTGTCTCCTAG)		0.0237
TTGTCTCCTTGGGTTCTAACCTGTTGCCT (site GTGTCTCCTAG)		0.109
TTGTCTCCTTGGGTTCTAACCTGTTGCCT (site TTGTCTCCTAG)		0.304
TTGTGTTCTTGGGTTCTAACCTGTTGCTT (site TTGTACTCTAA)		0.00637
TTGTGTTCTTGGGTTCTAACCTGTTGCTT (site TTGTGTTCTAA)		0.159
